Patent US20110052674A1, “ANGIOTENSIN II RECEPTOR BLOCKER DERIVATIVES” (MERCK SHARP & DOHME CORP., priority 2008, published 2011)
Values after ≈ are worked out from the molar mass of the structure shown.

Legend:
[1] = Solubility test in PEG 400/H2O 7/3; assay type: physicochemical; conditions: PEG 400/H2O 7/3, aqueous with cosolvent or surfactant or cyclodextrin, thermodynamic from solid; PEG400/H2O 70:30, 5.0 mg in 1 ml, mixed 1 hour, filtered; read-out: Solubility PEG400/H2O 70:30 (mg/ml) target 5 mg/ml
Experimental: The solubility of the tested compounds in PEG 400/H2O 7/3 was evaluated using a standard curve constructed of six calibration points by plotting the peak areas of the compounds of the invention versus the concentration.
Test solution: 5.0 mg of the nitroderivative were dissolved in 0.7 ml of PEG 400 in a glass volumetric flask and 0.3 ml of water were added. The solution was mixed for 1 hour and filtered through 0.45 μm Acrodisc filter.

[2] = test system: isolated rabbit thoracic aorta preparations; assay: Studies on vascular tone: vasorelaxation in isolated rabbit thoracic aorta preparations; assay type: cell-based; conditions: vasorelaxation of rabbit aortic rings precontracted with noradrenaline 1 μM, functional endothelium; for EC50: Oryctolagus cuniculus, read-out: EC50 (μM) ± sem
Experimental: The ability of ARB nitroderivatives to induce vasorelaxation in comparison to native ARBs, was tested in vitro in isolated rabbit thoracic aorta preparations (Wanstall J. C. et al., Br. J. Pharmacol., 134:463-472, 2001). Male New Zealand rabbits were anaesthetized with thiopental-Na (50 mg/kg, iv), sacrificed by exsanguinations and then the thorax was opened and the aorta dissected. Aortic ring preparations (4 mm in length) were set up in physiological salt solution (PSS) at 37° C. in small organ chambers (5 ml). The composition of PSS was (mM): NaCl 130, NaHCO3 14.9, KH2PO4 1.2, MgSO4 1.2, HEPES 10, CaCl2, ascorbic acid […] and glucose […] (95% O2/5% CO2; pH 7.4). Each ring was mounted under 2 g passive tension. Isometric tension was recorded with a Grass transducer (Grass FT03) attached to a BIOPAC MP150 System. Preparations were allowed to equilibrate for 1 h, and then contracted submaximally with noradrenaline (NA, 1 μM) and, when the contraction was stable, acetylcholine (ACh, 10 μM) was added. A relaxant response to ACh indicated the presence of a functional endothelium. […] When a stable precontraction was reached, a cumulative concentration-response curve to either of the vasorelaxant agents was obtained in the presence of a functional endothelium. Each arterial ring was exposed to only one combination of inhibitor and vasorelaxant. Moreover, the effect of the soluble guanylyl cyclase inhibitor ODQ (1-H-(1,2,4)-oxadiazol(4,3-a)quinoxalin-1-one) on vasorelaxation elicited by the compounds was examined preincubating the aortic rings with ODQ (10 μM) for 20 min.
Responses to relaxing agents are expressed as a percentage of residual contraction and plotted against concentration of test compound. EC50 values (where EC50 is the concentration producing 50% of the maximum relaxation to the test compound) were interpolated from these plots. During the experimental period, the plateau obtained with NA was stable without significant spontaneous loss of contraction in the aortic rings.
Furthermore, in experiments performed in the presence of ODQ (10 μM), the vasorelaxant responses to tested compounds were inhibited.

[3] = test system: spontaneously hypertensive rats (SHRs); assay: Antihypertensive activity in vivo in conscious spontaneously hypertensive rats; set-up: species or system rat; conditions: SHR, 10 mpk po single dose, delta vs baseline, telemetry (EXP 3174: tail-cuff method)
Experimental: The ability of the compounds of the invention to decrease blood pressure was evaluated in conscious spontaneously hypertensive rats (SHRs). SHRs (250-300 g) received a single oral dose of EXP 3174 or the corresponding nitroderivative. Systolic blood pressure (SBP) and heart rate were monitored by telemetry for 24 hours after dosing. SBP was evaluated before (baseline) and after (i.e. 6, 24 hours) treatment by oral administration of the compounds. The data were processed both as the absolute value or as a delta between the absolute value and its own baseline.
The Dataquest IV telemetry system (Data Sciences International) was used for measurement of systolic pressure, diastolic pressure, mean arterial pressure, heart rate, and motor activity. The monitoring system consists of a transmitter (radio frequency transducer model TA11PA), receiver panel, consolidation matrix, and personal computer with accompanying software. Before the device was implanted, calibrations were verified to be accurate within ±3 mmHg. Rats were anesthetized with ketamine/xylazine/acepromazine, and the flexible catheter of the transmitter was surgically secured in the abdominal aorta just below the renal arteries. The transmitter was sutured subcutaneously. Rats were housed in individual cages after the operation. Each cage was placed over the receiver panel that was connected to the personal computer for data acquisition. The rats were unrestrained and free to move within their cages. Hemodynamic data were sampled every 2 minutes for 10 seconds.

SMILES | solubility at 1 h [1] | EC50 [2] | EC50 (μM) ± sem [2] | Δ Systolic blood pressure (mmHg) 6 hrs [3] | Δ Systolic blood pressure (mmHg) 24 hrs [3]
CCCCc1nc(Cl)c(C(=O)N2CCC[C@H]2C(=O)OCCCCO[N+](=O)[O-])n1Cc1ccc(-c2ccccc2-c2nn[nH]n2)cc1 [EX. 7, (S)-4-(nitrooxy)butyl 1-(1-((2′-(2H-tetrazol-5-yl)biphenyl-4-yl)methyl)-2-butyl-4-chloro-1H-imidazole-5-carbonyl)pyrrolidine-2-carboxylate] | > 5 mg/mL | 7.1 ± 1.9 µM | – | – | –
CCCCc1nc(Cl)c(C(=O)N[C@@H](CCCNC(=N)N)C(=O)OCCCCO[N+](=O)[O-])n1Cc1ccc(-c2ccccc2-c2nn[nH]n2)cc1 [EX. 13, (S)-4-(nitrooxy)butyl 2-(1-((2′-(2H-tetrazol-5-yl)biphenyl-4-yl)methyl)-2-butyl-4-chloro-1H-imidazole-5-carboxamido)-5-guanidinopentanoate] | – | 30.6 ± 4.7 µM | – | – | –
CCOc1nc2cccc(C(=O)O)c2n1Cc1ccc(-c2ccccc2-c2nnn[nH]2)cc1 [Candesartan, reference compound] | – | – | no effect | – | –
CCCCc1nc(Cl)c(COC(=O)NCCOC(=O)CCCO[N+](=O)[O-])n1Cc1ccc(-c2ccccc2-c2nnn[nH]2)cc1 [EX. 1, 2-(((1-((2′-(1H-tetrazol-5-yl)biphenyl-4-yl)methyl)-2-butyl-4-chloro-1H-imidazol-5-yl)methoxy)carbonylamino)ethyl 4-(nitrooxy)butanoate] | 4 mg/mL (≈ 6.24 mM) | 23.6 ± 3.9 µM | – | – | –
CCCCc1nc(Cl)c(C(=O)N[C@@H](CCC(=O)OCCCCO[N+](=O)[O-])C(=O)OCCCCO[N+](=O)[O-])n1Cc1ccc(-c2ccccc2-c2nn[nH]n2)cc1 [EX. 10] | – | 5.4 ± 1.8 µM | – | −6 mmHg | −11 mmHg
CCCCc1nc(Cl)c(COC(=O)NCC(=O)OCCCCO[N+](=O)[O-])n1Cc1ccc(-c2ccccc2-c2nnn[nH]2)cc1 [EX. 3, 4-(nitrooxy)butyl 2-(((1-((2′-(1H-tetrazol-5-yl)biphenyl-4-yl)methyl)-2-butyl-4-chloro-1H-imidazol-5-yl)methoxy)carbonylamino)acetate] | > 5 mg/mL | 9.2 ± 4.1 µM | – | – | –
CCCCc1nc(Cl)c(C(=O)N[C@@H](CC(=O)OCCCCO[N+](=O)[O-])C(=O)OCCCCO[N+](=O)[O-])n1Cc1ccc(-c2ccccc2-c2nn[nH]n2)cc1 [EX. 8, (S)-bis(4-(nitrooxy)butyl) 2-(1-((2′-(2H-tetrazol-5-yl)biphenyl-4-yl)methyl)-2-butyl-4-chloro-1H-imidazole-5-carboxamido)succinate] | – | 10.4 ± 2.5 µM | – | – | –
CCCCc1nc(Cl)c(C(=O)N[C@@H](Cc2ccccc2)C(=O)OCCCCC(CO[N+](=O)[O-])O[N+](=O)[O-])n1Cc1ccc(-c2ccccc2-c2nnn[nH]2)cc1 (stereo in doubt) [EX. 9, (S)-(5,6-bis(nitrooxy)hexyl) 2-(1-((2′-(1H-tetrazol-5-yl)biphenyl-4-yl)methyl)-2-butyl-4-chloro-1H-imidazole-5-carboxamido)-3-phenylpropanoate] | 4.9 mg/mL (≈ 6.2 mM) | 3.4 ± 0.8 µM | – | – | –
CCCCc1nc(Cl)c(C(=O)O)n1Cc1ccc(-c2ccccc2-c2nn[nH]n2)cc1 [EXP 3174, 2-butyl-4-chloro-1-{[2′-(1H-tetrazol-5-yl)biphenyl-4-yl]methyl}-1H-imidazole-5-carboxylic acid, reference compound] | – | – | no effect | −5 mmHg | 2 mmHg

Second part, led by results:

solubility at 1 h [1] | EC50 [2] | EC50 (μM) ± sem [2] | SMILES | Δ Systolic blood pressure (mmHg) 6 hrs [3] | Δ Systolic blood pressure (mmHg) 24 hrs [3]
5.07 mg/mL (≈ 7.69 mM) | – | – | CCCCc1nc(Cl)c(C(=O)NCC(=O)OCc2ccc(CO[N+](=O)[O-])cc2)n1Cc1ccc(-c2ccccc2-c2nnn[nH]2)cc1 [(46), 4-(nitrooxymethyl)benzyl 2-(1-((2′-(2H-tetrazol-5-yl)biphenyl-4-yl)methyl)-2-butyl-4-chloro-1H-imidazole-5-carboxamido)acetate] | – | –
> 5 mg/mL | 40.1 ± 2.7 µM | – | CCCCc1nc(Cl)c(COC(=O)N[C@H](COC(=O)CCCO[N+](=O)[O-])Cc2ccccc2)n1Cc1ccc(-c2ccccc2-c2nnn[nH]2)cc1 [EX. 2, (S)-2-(((1-((2′-(1H-tetrazol-5-yl)biphenyl-4-yl)methyl)-2-butyl-4-chloro-1H-imidazol-5-yl)methoxy)carbonylamino)-3-phenylpropyl 4-(nitrooxy)butanoate] | – | –
– | – | no effect | CCCCc1nc(Cl)c(CO)n1Cc1ccc(-c2ccccc2-c2nn[nH]n2)cc1 [Losartan, reference compound] | – | –
– | 46 ± 7.2 µM | – | CCCCc1nc(Cl)c(COC(=O)N[C@@H](CCCCN)C(=O)OCCCCO[N+](=O)[O-])n1Cc1ccc(-c2ccccc2-c2nnn[nH]2)cc1 [EX. 4, 4-(nitrooxy)butyl 2-(((1-((2′-(1H-tetrazol-5-yl)biphenyl-4-yl)methyl)-2-butyl-4-chloro-1H-imidazol-5-yl)methoxy)carbonylamino)-6-aminohexanoate] | – | –
> 5 mg/mL | 14.2 ± 8 µM | – | CCCCc1nc(Cl)c(C(=O)N[C@@H](Cc2ccccc2)C(=O)OCCCCO[N+](=O)[O-])n1Cc1ccc(-c2ccccc2-c2nnn[nH]2)cc1 [EX. 6] | −12 mmHg | −13 mmHg
4.2 mg/mL (≈ 6.87 mM) | 9.2 ± 2.5 µM | – | CCCCc1nc(Cl)c(C(=O)NCC(=O)OCCCCO[N+](=O)[O-])n1Cc1ccc(-c2ccccc2-c2nnn[nH]2)cc1 [EX. 5, 4-(Nitrooxy)butyl 2-(1-((2′-(1H-tetrazol-5-yl)biphenyl-4-yl)methyl)-2-butyl-4-chloro-1H-imidazole-5-carboxamido)acetate] | −7 mmHg | −11 mmHg
4.6 mg/mL | 38.7 ± 5.3 µM | – | CCCCc1nc(Cl)c(C(=O)NCC(=O)NCCCCO[N+](=O)[O-])n1Cc1ccc(-c2ccccc2-c2nnn[nH]2)cc1 [EX. 11, 4-(2-(1-((2′-(1H-tetrazol-5-yl)biphenyl-4-yl)methyl)-2-butyl-4-chloro-1H-imidazole-5-carboxamido)acetamido)butyl nitrate] | −6 mmHg | −17 mmHg
